Where two headings read alike, the source gives them in different places.
Assays:
[1] = system: U266 cells; test: Flow cytometry apoptosis (Annexin V-FITC/7-AAD); type: cell-based, human; settings: 12 hours, EPED3 2 μM, Velcade 0.5 μM
Method: FIGS. 14A-14L show flowcytometry analyses of cell viability and cell cycle arrest under EPED3 and Velcade treatments. U266 cells were co-cultured without contact with human fetal bone mesenchymal cells. Cells were untreated (Control; FIGS. 14A, 14D, 14G, 14J) or exposed to […] (FIGS. 14B, 14E, 14H, 14K) or […] (FIGS. 14C, 14F, 14I, 14L) for 12 hours and then harvested. Pan-caspase inhibitor Z-VAD-FMK ([…]) was also added to co-cultures (FIGS. 14D-14F and FIGS. 14J-14L) to block caspase-dependent apoptosis and then analyzed for cell cycling arrest. Percent cells in G0+G1 and G2+M phases were measured by the peaks of DNA helix and are gated with each graph (FIGS. 14A-14F). Percent cells with fragmented DNA are indicated as c % in each graph. Cells were also analyzed for apoptotic status (FIGS. 14G-14L) using Coulter Annexin-V FITC/7-AAD kit. Untreated cells (Control; FIGS. 14G and 14J) were maintained at high viability (90%). Early apoptotic cells were gated at G4, and necrotic cells were gated at G2; percent cells in each population are indicated with each graph. The arrows indicate percent viable cells ingested EPED3, whose fluorescent property was captured at channel FL4 (FIGS. 14H, 14K).
Apoptosis was detected using the Annexin V-fluorescein isothiocyanate (FITC)/7-AAD kit (Beckman Coulter, Inc.). Myeloma cells were harvested from co-culture inserts and washed in PBS; 5×10^5 cells were incubated on ice with 100 μl of binding buffer (10 μl Annexin V-FITC and 20 μl of 7-AAD) for 15 minutes. Samples were analyzed using EPICS XL-MCL flowcytometer equipped with EXPO32 ADC software (Beckman Coulter, Inc.).
To investigate the effects of EPED3 on apoptosis and cell cycle arrest of myeloma cells, U266 cells were exposed to EPED3 (2 μM) or Velcade (0.5 μM) in co-culture without direct contact with fetal human bone mesenchymal cells. Twelve hours after treatment, cells were harvested for using flow cytometry to detect ongoing apoptosis and cell cycle arrest.

[2] = system: human fetal bone mesenchymal cells; test: Morphology of mesenchymal cells in co-culture; type: cell-based; settings: co-culture without direct contact; EPED3 2 mM, Velcade 0.5 mM
Method: FIGS. 11A-11F compare the morphological features of EPED3 and Velcade induced apoptosis in myeloma cells and normal mesenchymal cells. JJN3 myeloma cell line and human fetal bone mesenchymal cells were co-cultured without direct contact between cell types. EPED3 (2 mM) and Velcade (0.5 mM) were added to the cultures; control cells were untreated. Live cell cultures were photographed 3 days after initiating treatment (400× magnification under Olympus invert-microscope with RT-Color SPOT digital camera and the software, Diagnostic Instrument Inc. Sterling Heights, Mich.). In comparison to cell morphology of non-treated JJN3 cells, myeloma cells were destroyed under both EPED3 (FIG. 11E) and Velcade (FIG. 11F) treatments as the appearance of cell shrinkage, and the formation of phagozytosed apoptotic bodies (arrows); in comparison to no treatment, mesenchymal cells were also destroyed by Velcade treatment as the appearance of cell shrinkage, and the formation of phagozytosed apoptotic bodies (arrows) (FIG. 1C) but not by EPED3 treatment (FIG. 11B).
The monolayer human fetal bone mesenchymal cells were established from live bone chips (Advanced Bioscience Resources Inc, Alameda, Calif.) in complete RPMI-1640 medium. The medium was the same as described above. The cells were trypsinized and seeded in 6-well plates, and then allowed to reach 75% confluence. […]

[3] = system: U266 myeloma cell line; parameters: cell viability (CellTiter-Glo luminescent assay): dose or concentration left out as unconfirmed; settings: for cell viability (CellTiter-Glo luminescent assay): U266
Method: The dosage of each derivative was set at 2, 0.2 and 0.02 mM. A cell culture medium control and 0.5% DMSO control was maintained in each experiment. The cell viability was tested each day over a period of five days using the CellTiter-Glo luminescent cell viability assay kit from Promega Co.
U266 cell line was one of 12 myeloma cell lines used in screening of anti-myeloma agents. In FIG. 10A, cells were treated with 14 ellipticine derivatives (0.5 mM) obtained from the DTP; control cells were untreated. Ellipticine derivatives are coded with NSC identifiers. For 5 days, cell viability was measured every 24 hours using CellTiter-Glo Luminescent Assay. […] In FIG. 10B, U266 cells, along with six other myeloma cell lines, were co-cultured in direct contact with human fetal bone mesenchymal cells and treated with EPED3 (0.5 mM and 2 mM) or Velcade (0.5 mM); control cells were untreated. Cell proliferation was assessed by MTT assay every 24 hours for 5 days. […] Error bars indicate standard deviation.
Cell Titer-Glo luminescent cell viability assay kit from Promega Co (Madison, Wis.) was used to determine cell growth inhibition by the various compounds tested. The kit determines cell viability by quantifying the amount of ATP present in the cell culture medium. Presence of ATP signals the presence of metabolically active cells (3). The intensity of luminescence was measured by a computerized luminometer (Promega, Co. Madison, Wis.). Each well was read five times within 30 minutes of adding Cell Titer-Glo reagent mixture.
Cells were contacted with the antineoplastic agents in ninety six well culture plates. The concentration of each neoplastic agent was maintained a constant. A cell culture medium control and 0.5% DMSO control were maintained in each set of experiments. The cell viability was tested every day using the CellTiter-Glo luminescent cell viability kit from Promega Co. (Madison, Wis.) for a period of five days.

[4] = co-culture without direct contact
[5] = with pan-caspase inhibitor Z-VAD-FMK

For `CC(C)C[C@H](NC(=O)[C@H](Cc1ccccc1)NC(=O)c1cnccn1)B(O)O` [Velcade, bortezomib, reference compound], the apoptotic cells [1, 4] was 20.6%, the necrotic cells [1, 4] was 31.3% and the apoptotic cells [1, 5] was 25%. The necrotic cells [1, 5] was 2.8% and the “morphological damage of mesenchymal cells” value [2] was “severe destruction of the mesenchymal cells”.
`Cc1c2ccncc2c(C)c2c1[nH]c1ccc(OCCN(C)C)cc12` [NSC 338258, ellipticine, 9-dimethyl amino-ethoxy-] gave an apoptotic cells [1, 4] of 36%, a necrotic cells [1, 4] of 9.7% and an apoptotic cells [1, 5] of 8.9%. For the same compound, the necrotic cells [1, 5] was 18.9%, the “cytotoxic activity on U266 cells” value [3] was “drastic cytotoxic activity” and the “cell viability (CellTiter-Glo luminescent assay)” value (from here on “cell viability”) ([3]; 0.02, Day 1) was 26,346. For the same compound, the “cell viability” value ([3]; 0.02, Day 2) was 37,946, the “cell viability” value ([3]; 0.02, Day 3) was 43,097 and the “cell viability” value ([3]; 0.02, Day 4) was 74,106. For the same compound, the “cell viability” value ([3]; 0.02, Day 5) was 86,287, the “cell viability” value ([3]; 0.2, Day 1) was 5,906 and the “cell viability” value ([3]; 0.2, Day 2) was 1,414. For the same compound, the “cell viability” value ([3]; 0.2, Day 3) was 515, the “cell viability” value ([3]; 0.2, Day 4) was 291 and the “cell viability” value ([3]; 0.2, Day 5) was 101. For the same compound, the “cell viability” value ([3]; 2, Day 1) was 2,559, the “cell viability” value ([3]; 2, Day 2) was 691 and the “cell viability” value ([3]; 2, Day 3) was 172. For the same compound, the “cell viability” value ([3]; 2, Day 4) was 183 and the “cell viability” value ([3]; 2, Day 5) was 104.
